From patent publication US20060147898A1, “Cell microchip” (NITTO DENKO CORPORATION, priority 2003, published 2006)

Tested on: rat breast cancer cell MTF7
Assay: Action of 5ALA on MTF7 cells in the cell microchip (fluorescence and growth after Ar ion laser irradiation)
Assay type: cell-based
Experimental: The cell microchip prepared in Example 1 was used to examine the action of […] (5ALA) on rat breast cancer cell MTF7 according to a method described in Journal of Japan Society for Laser Surgery and Medicine, Vol. 17, No. 1, pp. 1-10 (1996).
MTF7 was provided by Dr. Stephan P. Tomasovic, M. D. Anderson Cancer Center, […], US. MTF7 was proliferated in an a-MEM medium (Sigma Corporation) supplemented with 10% fetal calf serum (FCS) in an incubator for cell culture (37° C. in 5% CO2 under humidity).
The cell microchip (FIG. 4) prepared in Example 1 was placed in a 90 mmf Petri dish, and the flow channel (A) 33, flow channel (B) 34 and flow channel (C) 35 were filled with the above medium. […]
Then the cell microchip wherein the MTF7 cells had been proliferated was removed from the Petri dish, and the above medium was injected via a micro pump into the liquid reservoir 37 of the flow channel (A) 33, and while the above medium containing 5ALA manufactured by Sigma Corporation) at various concentrations (25, 50, 100, 200 and 400 mg/ml) was injected into the liquid reservoir 37 of the flow channel (B) 34, the cells were observed under a fluorescence microscope equipped with the incubator. […] The cells into which the 5ALA-containing medium had not been injected emitted no fluorescence.

## NCC(=O)CCC(=O)O [5ALA, d-aminolevulinic acid]
MTF7 cells at 3-pronged junction, medium containing 5ALA at 25, 50, 100, 200 and 400 mg/ml, irradiated with Ar ion laser at 488 nm, 200 mW
  emission of fluorescence under a fluorescence microscope: emission of fluorescence was observed
MTF7 cells emitting fluorescence (5ALA-containing medium), observed with time under a microscope after Ar ion laser irradiation at 488 nm
  cell growth / survival on continued culture after laser irradiation: terminated their growth and fell eventually into death
